Measured values taken from patent US20050197350A1, “Novel quinoline, tetrahydroquinazoline, and pyrimidine derivatives and methods of treatment related to the use thereof” (TAISHO PHARMACEUTICAL CO., LTD., priority 2003, published 2005).

test system: MCH receptors; test: MCH receptor activity class (method not given); conditions: class by percent of control at 10^-7 M or IC50

| SMILES | class |
| --- | --- |
| COc1ccc(Br)cc1CNC[C@H]1CC[C@@H](Nc2nccc(N(C)C)n2)CC1 [compound 1266] | 1 (Class 1: The value of percent of control at 10^−7 M was less than 40% or the value of IC50 was less than 50 nM.) |
| CN(C)c1ccnc(N[C@H]2CC[C@@H](CNCc3ccc(O)cc3Cl)CC2)n1 [compound 1267] | 3 (Class 3 The value of percent of control at 10^−7 M was more than 60% or the value of IC50 was more than 200 nM.) |
| CN(C)c1ccnc(N[C@H]2CC[C@@H](CNCc3ccccc3C#N)CC2)n1 [compound 1268] | 3 (Class 3 The value of percent of control at 10^−7 M was more than 60% or the value of IC50 was more than 200 nM.) |
| CN(C)c1ccnc(N[C@H]2CC[C@@H](CNCc3cccc(Cl)c3)CC2)n1 [compound 1269] | 3 (Class 3 The value of percent of control at 10^−7 M was more than 60% or the value of IC50 was more than 200 nM.) |
| CN(C)c1ccnc(N[C@H]2CC[C@@H](CNCc3ccc(Cl)cc3)CC2)n1 [compound 1270] | 3 (Class 3 The value of percent of control at 10^−7 M was more than 60% or the value of IC50 was more than 200 nM.) |
| CCN(CC)c1ccc(CNC[C@H]2CC[C@@H](Nc3nccc(N(C)C)n3)CC2)cc1 [compound 1271] | 2 (Class 2: The value of percent of control at 10^−7 M was from 40% to 60% or the value of IC′50 was from 50 nM to 200 nM.) |
| CN(C)c1ccc(CNC[C@H]2CC[C@@H](Nc3nccc(N(C)C)n3)CC2)cc1 [compound 1272] | 3 (Class 3 The value of percent of control at 10^−7 M was more than 60% or the value of IC50 was more than 200 nM.) |
| CCn1c2ccccc2c2cc(CNC[C@H]3CC[C@@H](Nc4nccc(N(C)C)n4)CC3)ccc21 [compound 1273] | 1 (Class 1: The value of percent of control at 10^−7 M was less than 40% or the value of IC50 was less than 50 nM.) |
| CN(C)c1ccnc(N[C@H]2CC[C@@H](CNCc3cc(C(F)(F)F)ccc3F)CC2)n1 [compound 1274] | 3 (Class 3 The value of percent of control at 10^−7 M was more than 60% or the value of IC50 was more than 200 nM.) |
| CN(C)c1ccnc(N[C@H]2CC[C@@H](CNCc3ccc(O)cc3)CC2)n1 [compound 1275] | 3 (Class 3 The value of percent of control at 10^−7 M was more than 60% or the value of IC50 was more than 200 nM.) |
| CN(C)c1ccnc(N[C@H]2CC[C@@H](CNCc3ccc(CO)o3)CC2)n1 [compound 1276] | 3 (Class 3 The value of percent of control at 10^−7 M was more than 60% or the value of IC50 was more than 200 nM.) |
| CC(C)Oc1ccc(CNC[C@H]2CC[C@@H](Nc3nccc(N(C)C)n3)CC2)cc1 [compound 1277] | 2 (Class 2: The value of percent of control at 10^−7 M was from 40% to 60% or the value of IC′50 was from 50 nM to 200 nM.) |
| CCc1ccc(CNC[C@H]2CC[C@@H](Nc3nccc(N(C)C)n3)CC2)s1 [compound 1278] | 3 (Class 3 The value of percent of control at 10^−7 M was more than 60% or the value of IC50 was more than 200 nM.) |
| CN(C)c1ccnc(N[C@H]2CC[C@@H](CNCC=C(c3ccccc3)c3ccccc3)CC2)n1 [compound 1279] | 1 (Class 1: The value of percent of control at 10^−7 M was less than 40% or the value of IC50 was less than 50 nM.) |
| CCOc1cc(CNC[C@H]2CC[C@@H](Nc3nccc(N(C)C)n3)CC2)ccc1O [compound 1280] | 2 (Class 2: The value of percent of control at 10^−7 M was from 40% to 60% or the value of IC′50 was from 50 nM to 200 nM.) |
| CN(C)c1ccnc(N[C@H]2CC[C@@H](CNCc3ccc(N(C)C)c4ccccc34)CC2)n1 [compound 1281] | 2 (Class 2: The value of percent of control at 10^−7 M was from 40% to 60% or the value of IC′50 was from 50 nM to 200 nM.) |
| COc1cc(OC)c(CNC[C@H]2CC[C@@H](Nc3nccc(N(C)C)n3)CC2)c(OC)c1 [compound 1282] | 1 (Class 1: The value of percent of control at 10^−7 M was less than 40% or the value of IC50 was less than 50 nM.) |
| CN(C)c1ccnc(N[C@H]2CC[C@@H](CNCc3cc(Cl)cc(Br)c3O)CC2)n1 [compound 1283] | 3 (Class 3 The value of percent of control at 10^−7 M was more than 60% or the value of IC50 was more than 200 nM.) |
| CN(C)c1ccnc(N[C@H]2CC[C@@H](CNCc3cccc(C#N)c3)CC2)n1 [compound 1284] | 3 (Class 3 The value of percent of control at 10^−7 M was more than 60% or the value of IC50 was more than 200 nM.) |
| COc1ccc(F)c(CNC[C@H]2CC[C@@H](Nc3nccc(N(C)C)n3)CC2)c1 [compound 1285] | 3 (Class 3 The value of percent of control at 10^−7 M was more than 60% or the value of IC50 was more than 200 nM.) |
| CN(C)c1ccnc(N[C@H]2CC[C@@H](CNCc3ccccc3SC(F)(F)F)CC2)n1 [compound 1286] | 3 (Class 3 The value of percent of control at 10^−7 M was more than 60% or the value of IC50 was more than 200 nM.) |
| CCOc1ccc(Br)cc1CNC[C@H]1CC[C@@H](Nc2nccc(N(C)C)n2)CC1 [compound 1287] | 1 (Class 1: The value of percent of control at 10^−7 M was less than 40% or the value of IC50 was less than 50 nM.) |
| COc1ccc(CNC[C@H]2CC[C@@H](Nc3nccc(N(C)C)n3)CC2)c(OC)c1C [compound 1288] | 1 (Class 1: The value of percent of control at 10^−7 M was less than 40% or the value of IC50 was less than 50 nM.) |

| SMILES | class |
| --- | --- |
| CN(C)c1ccnc(N[C@H]2CC[C@@H](CNCc3ccccc3OC(F)(F)F)CC2)n1 [compound 1289] | 3 (Class 3 The value of percent of control at 10^−7 M was more than 60% or the value of IC50 was more than 200 nM.) |
| CCOc1ccc(OCC)c(CNC[C@H]2CC[C@@H](Nc3nccc(N(C)C)n3)CC2)c1 [compound 1290] | 1 (Class 1: The value of percent of control at 10^−7 M was less than 40% or the value of IC50 was less than 50 nM.) |
| CCOc1ccc(CNC[C@H]2CC[C@@H](Nc3nccc(N(C)C)n3)CC2)c(OCC)c1 [compound 1291] | 2 (Class 2: The value of percent of control at 10^−7 M was from 40% to 60% or the value of IC′50 was from 50 nM to 200 nM.) |
| COc1c(Br)cc(Br)cc1CNC[C@H]1CC[C@@H](Nc2nccc(N(C)C)n2)CC1 [compound 1292] | 1 (Class 1: The value of percent of control at 10^−7 M was less than 40% or the value of IC50 was less than 50 nM.) |
| CN(C)c1ccnc(N[C@H]2CC[C@@H](CNCc3ccccc3OC(F)F)CC2)n1 [compound 1293] | 3 (Class 3 The value of percent of control at 10^−7 M was more than 60% or the value of IC50 was more than 200 nM.) |
| COc1ccc(F)cc1CNC[C@H]1CC[C@@H](Nc2nccc(N(C)C)n2)CC1 [compound 1294] | 3 (Class 3 The value of percent of control at 10^−7 M was more than 60% or the value of IC50 was more than 200 nM.) |
| CCOc1cc(OCC)c(OCC)cc1CNC[C@H]1CC[C@@H](Nc2nccc(N(C)C)n2)CC1 [compound 1295] | 1 (Class 1: The value of percent of control at 10^−7 M was less than 40% or the value of IC50 was less than 50 nM.) |
| COc1cc(OC)c(OC)cc1CNC[C@H]1CC[C@@H](Nc2nccc(N(C)C)n2)CC1 [compound 1296] | 2 (Class 2: The value of percent of control at 10^−7 M was from 40% to 60% or the value of IC′50 was from 50 nM to 200 nM.) |
| COc1cccc(CNC[C@H]2CC[C@@H](Nc3nccc(N(C)C)n3)CC2)c1OC [compound 1297] | 3 (Class 3 The value of percent of control at 10^−7 M was more than 60% or the value of IC50 was more than 200 nM.) |
| C=CCOc1ccccc1CNC[C@H]1CC[C@@H](Nc2nccc(N(C)C)n2)CC1 [compound 1298] | 1 (Class 1: The value of percent of control at 10^−7 M was less than 40% or the value of IC50 was less than 50 nM.) |
| CN(C)c1ccnc(N[C@H]2CC[C@@H](CNCc3csc4ccccc34)CC2)n1 [compound 1299] | 3 (Class 3 The value of percent of control at 10^−7 M was more than 60% or the value of IC50 was more than 200 nM.) |
| CN(C)c1ccnc(N[C@H]2CC[C@@H](CNCc3cn(C)c4ccccc34)CC2)n1 [compound 1300] | 2 (Class 2: The value of percent of control at 10^−7 M was from 40% to 60% or the value of IC′50 was from 50 nM to 200 nM.) |
| Cc1ccc(CNC[C@H]2CC[C@@H](Nc3nccc(N(C)C)n3)CC2)s1 [compound 1301] | 3 (Class 3 The value of percent of control at 10^−7 M was more than 60% or the value of IC50 was more than 200 nM.) |
| Cc1cc(C)c(CNC[C@H]2CC[C@@H](Nc3nccc(N(C)C)n3)CC2)c(C)c1 [compound 1302] | 3 (Class 3 The value of percent of control at 10^−7 M was more than 60% or the value of IC50 was more than 200 nM.) |
| CN(C)c1ccnc(N[C@H]2CC[C@@H](CNCc3ccc4c(c3)OCO4)CC2)n1 [compound 1303] | 3 (Class 3 The value of percent of control at 10^−7 M was more than 60% or the value of IC50 was more than 200 nM.) |
| CN(C)c1ccnc(N[C@H]2CC[C@@H](CNCc3ccsc3)CC2)n1 [compound 1304] | 3 (Class 3 The value of percent of control at 10^−7 M was more than 60% or the value of IC50 was more than 200 nM.) |
| Cc1cccc(CNC[C@H]2CC[C@@H](Nc3nccc(N(C)C)n3)CC2)c1 [compound 1305] | 3 (Class 3 The value of percent of control at 10^−7 M was more than 60% or the value of IC50 was more than 200 nM.) |
| Cc1ccccc1CNC[C@H]1CC[C@@H](Nc2nccc(N(C)C)n2)CC1 [compound 1306] | 3 (Class 3 The value of percent of control at 10^−7 M was more than 60% or the value of IC50 was more than 200 nM.) |
| Cc1ccc(CNC[C@H]2CC[C@@H](Nc3nccc(N(C)C)n3)CC2)cc1 [compound 1307] | 3 (Class 3 The value of percent of control at 10^−7 M was more than 60% or the value of IC50 was more than 200 nM.) |
| CN(C)c1ccnc(N[C@H]2CC[C@@H](CNCc3cc(Cl)cc(Cl)c3)CC2)n1 [compound 1308] | 3 (Class 3 The value of percent of control at 10^−7 M was more than 60% or the value of IC50 was more than 200 nM.) |
| COc1cc(CNC[C@H]2CC[C@@H](Nc3nccc(N(C)C)n3)CC2)cc2c1OCO2 [compound 1309] | 1 (Class 1: The value of percent of control at 10^−7 M was less than 40% or the value of IC50 was less than 50 nM.) |
| COc1cc(CNC[C@H]2CC[C@@H](Nc3nccc(N(C)C)n3)CC2)cc(Br)c1OC [compound 1310] | 1 (Class 1: The value of percent of control at 10^−7 M was less than 40% or the value of IC50 was less than 50 nM.) |
